Test results from PubChem BioAssay AID493251 (Sanford-Burnham Center for Chemical Genomics, 2011).
Where “and” joins values, the source holds several entries; their conditions need not be identical. Equal entries are not always repeated.

Tested on: HEK293T NF-kB-Luc cytotoxicity, resazurin fluorescence, 14 h;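 active = compounds toxic to HEK293 cells with IC50 at or below 20 µM; inactive = the rest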
Assay: cytotoxicity in HEK293T NF-kB-Luc cells, SAR follow-up, cytotoxicity control for NF-kB activator project, cell-based, resazurin fluorescence (AID 493251)

CCCC(=O)NC(c1ccc(OC)cc1)c1ccc2cccnc2c1O (stereo unspecified)
IC50: 15.8 µM and > 33.2 µM (inactive)
